This note sets out measurements from ChEMBL document CHEMBL5512651, “Synthesis and biological evaluation of 4-imidazolidinone-containing compounds as potent inhibitors of the MDM2/p53 interaction” (Eur J Med Chem, 2024).

The subject of series [1] is MOLM-13. Briefly: Induction of apoptosis in human MOLM-13 cells assessed as increase in PARP cleavage at 0.15 to 0.6 uM incubated for 24 hrs by Western blot analysis. It is filed as functional, cell-based. The note with it: dose 0.15-0.6 µM. Background: In western blotting, separated proteins are transferred to a membrane and probed.
For series [2], the target named is Cellular tumor antigen p53 (Homo sapiens) (UniProt P04637). Briefly: Activation of p53 pathway in human MOLM-13 cells assessed as increase in MDM2 mRNA level incubated for 24 hrs by qPCR analysis. Particulars: filed as activator, dose 0.038-0.6 µM. Type of series: cell-based. A general note: In qPCR the cycle at which signal appears reflects the starting amount.

For series [3] the target is unchanged. Briefly: Activation of p53 pathway in human MOLM-13 cells assessed as increase in p21 mRNA level incubated for 24 hrs by qPCR analysis. Type of series: cell-based. Particulars: filed as activator, dose 0.038-0.6 µM.
Series [4] shares this target. Briefly: Activation of p53 pathway in human MOLM-13 cells assessed as increase in BAX mRNA level incubated for 24 hrs by qPCR analysis. It is filed as cell-based. The note with it: filed as activator, dose 0.038-0.6 µM.
In series [5] the test system is MOLM-13. Briefly: Induction of apoptosis in human MOLM-13 cells assessed as necrotic cells at 0.1 uM incubated for 24 hrs by Annexin V-FITC/PI staining based flow cytometry (reference value: 0.020 %). It is filed as functional. On the technique in general: In flow cytometry, cells or beads pass a laser one at a time.
For series [6], the system named is MOLM-13. The series is described as follows: Induction of apoptosis in human MOLM-13 cells assessed as viable cells at 0.3 uM incubated for 24 hrs by Annexin V-FITC/PI staining based flow cytometry (reference value: 95.1 %). Type of series: functional. Particulars: read-out: Activity.
Series [7] deals with MOLM-13. The series is described as follows: Induction of apoptosis in human MOLM-13 cells assessed as early apoptotic cells at 0.9 uM incubated for 24 hrs by Annexin V-FITC/PI staining based flow cytometry (reference value: 4.44 %). Type of series: functional.
Series [8] relates to MOLM-13. The series is described as follows: Induction of apoptosis in human MOLM-13 cells assessed as necrotic cells at 0.9 uM incubated for 24 hrs by Annexin V-FITC/PI staining based flow cytometry (reference value: 0.020 %). It is filed as functional.
The test system of series [9] is MOLM-13. The series is described as follows: Induction of apoptosis in human MOLM-13 cells assessed as viable cells at 2.7 uM incubated for 24 hrs by Annexin V-FITC/PI staining based flow cytometry (reference value: 95.1 %). It is filed as functional. The note with it: read-out: Activity.
Series [10] deals with MOLM-13. The series is described as follows: Induction of apoptosis in human MOLM-13 cells assessed as late apoptotic cells at 2.7 uM incubated for 24 hrs by Annexin V-FITC/PI staining based flow cytometry (reference value: 0.457 %). It is filed as functional.
The subject of series [11] is MOLM-13. The series is described as follows: Induction of apoptosis in human MOLM-13 cells assessed as late apoptotic cells at 8.1 uM incubated for 24 hrs by Annexin V-FITC/PI staining based flow cytometry (reference value: 0.457 %). It is filed as functional.
Series [12] can be described thus: Selectivity index, ratio of IC50 for HEK293 cells to IC50 for human HeLa cells. The note with it: HEK293 cells versus HeLa cells, read-out: Ratio IC50. Type of series: toxicity.
Series [13] concerns the target Cellular tumor antigen p53 (Homo sapiens) (UniProt P04637). Briefly: Activation of p53 pathway in human HCT-116 cells assessed as increase in p21 level at 1 uM incubated for 24 hrs by Western blot analysis. It is filed as cell-based. Particulars: filed as activator.
Series [14] has the same target. Briefly: Activation of p53 pathway in human A549 cells assessed as increase in p21 level at 1 uM incubated for 24 hrs by Western blot analysis. Type of series: cell-based. The note with it: filed as activator.
Series [15] shares this target. The series is described as follows: Activation of p53 pathway in human HeLa cells assessed as increase in p53 level at 1 uM incubated for 24 hrs by Western blot analysis. Type of series: cell-based.
In another series the test system is A549. Briefly: cells. Particulars: Homo sapiens, A549, 96 h.

Each structure is given as a SMILES string. Calls of active or inactive are those of the source. The calls are words filed in the database; no cut-off is given here.

Chain of Cellular tumor antigen p53 (Homo sapiens) (P04637 whole entry, looked up): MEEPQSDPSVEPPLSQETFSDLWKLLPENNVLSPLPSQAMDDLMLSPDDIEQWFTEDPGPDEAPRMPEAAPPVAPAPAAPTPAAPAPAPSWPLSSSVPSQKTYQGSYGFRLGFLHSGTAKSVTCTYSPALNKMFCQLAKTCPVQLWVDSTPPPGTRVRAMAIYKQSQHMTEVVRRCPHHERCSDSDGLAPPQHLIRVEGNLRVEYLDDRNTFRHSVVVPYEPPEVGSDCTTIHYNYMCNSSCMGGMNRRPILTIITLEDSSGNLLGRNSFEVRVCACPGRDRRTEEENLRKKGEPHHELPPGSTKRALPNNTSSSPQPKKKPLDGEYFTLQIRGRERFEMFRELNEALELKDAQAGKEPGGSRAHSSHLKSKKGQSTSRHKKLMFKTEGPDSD

As to `COc1cc(C(=O)O)ccc1N1CN2[C@@H](CC(C)(C)C)[C@@]3(CNc4cc(Cl)ccc43)[C@@H](c3cccc(Cl)c3)[C@@H]2C1=O`, the outcome (in the series on MOLM-13 [1]; in series [13]; in [14]) was Active. The Activity entry is “Dose-Dependent Effect” in series [2]; “Dose-Dependent Effect” in series [3]; “Dose-Dependent Effect” in [4]; 0.124% in the series on MOLM-13 [5]; 48.8% with MOLM-13 [7]; 0.119% in the series on MOLM-13 [8]. Moreover, the Activity with MOLM-13 [10] was found to be 1.18%; in the series on MOLM-13 [11], 1.41%. The viability at 0.3 µM in the series on MOLM-13 [6] was 74.5%. Further, the viability at 2.7 µM in the series on MOLM-13 [9] came out at 30.1%. For the same compound, the selectivity ratio in series [12] was 0.8. Further, the outcome in series [15] was inactive. In the series on A549, the IC50 (as a rule, the concentration that gives 50% inhibition) came out at 184 nM.
